Source: patent US9539237B2, “Compositions and methods for drug-sensitization or inhibition of a cancer cell” (The Texas A&M University System, priority 2012, dated 2017)
Read-outs that look alike come from different tables or passages of the source. Numbered stars: 1 amine (or outer) side, 2 acyl side, 3 side chain; on linkers, the order of the positions; unused ones are H or OH. Bridge positions count the residues as written; N and C are the ends. Square brackets hold non-standard residues; d marks the D form. Peptide text beside a SMILES is read from it. I, II: the chains in the order shown. Actinocin(9to1) = Cc1c2oc3c(C)ccc(C(=O)[*:1])c3nc-2c(C(=O)[*:2])c(N)c1=O; NMeV = CN[C@H](C(=O)O)C(C)C; Sar = CNCC(=O)O

Experiments:
[1] = system: CHOP-resistant G3 NHL cells; experiment: Cell growth assay (resazurin fluorescence) on G3 cells; assay type: cell-based, human; settings: for Magnitude of potentiation in combination with doxorubicin: G3; for IC50: Homo sapiens
Protocol: Compositions were tested on CHOP-resistant G3 NHL cells that had been cultivated in RPMI medium for five days. Prior to assay, the cells were counted by haemocytometer and cell concentration standardized to 625,000 cells/ml. Test drugs were solubilized in 100% DMSO and then diluted to final assay concentration with 0.1M phosphate buffered saline (PBS) and a final DMSO concentration of 0.5%. […] The metabolic dye rezasurin was added to the wells of the assay plate at a final concentration of 20 μg/ml and the plates were incubated for an additional 24 hours. The plates were then read in a BMG Polarstar plate reader at wavelength (573-605) and the data plotted as OD versus increasing dilutions (i.e., decreasing total amounts) of rifabutin derivative concentration.
(§1) In these experiments, the following cell lines were used: CHOP-resistant NHL cell line G3, CHOP-sensitive NHL cell line CRL2631, the multi-drug resistant sarcoma cell line MES-SA-Dx5; multi-drug-resistant breast cancer cell line MDA-MB-231, multi-drug resistant ovarian carcinoma cell line SK-OV3, multi-drug resistant ovarian cancer cell line NCI/ADR-RES, drug-sensitive ovarian cancer cell line OVCAR-5, and multi-drug resistant ovarian cancer cell line OVCAR-3. […]

[2] = system: multi-drug resistant sarcoma cell line MES-SA-Dx5; experiment: Cell growth assay on MES-SA-Dx5 cells; assay type: cell-based
Description: (§2) In these experiments, the following cell lines were used: CHOP-resistant NHL cell line G3, CHOP-sensitive NHL cell line CRL2631, the multi-drug resistant sarcoma cell line MES-SA-Dx5; multi-drug-resistant breast cancer cell line MDA-MB-231, multi-drug resistant ovarian carcinoma cell line SK-OV3, multi-drug resistant ovarian cancer cell line NCI/ADR-RES, drug-sensitive ovarian cancer cell line OVCAR-5, and multi-drug resistant ovarian cancer cell line OVCAR-3.
(§3) Additional cell lines used include: ovarian cancer OVCAR-8. T lymphoblastoid leukemia MOLT-4, dexamethasone-resistant multiple myeloma MM.1R, myeloid leukemia cells HL-60, osteosarcoma cells U-2 OS, and myeloma RPMI 8226.

[3] = system: multi-drug-resistant breast cancer cell line MDA-MB-231; experiment: Cell growth assay on MDA-MB-231 cells; assay type: cell-based
Description: as §2, §3

[4] = system: multi-drug resistant ovarian carcinoma cell line SK-OV3; experiment: Cell growth assay on SK-OV3 cells; assay type: cell-based, human
Description: as §1

[5] = system: multi-drug resistant ovarian cancer cell line OVCAR-3; experiment: Cell growth assay on OVCAR-3 cells; assay type: cell-based
Description: as §2, §3

[6] = system: drug-sensitive ovarian cancer cell line OVCAR-5; experiment: Cell growth assay on OVCAR-5 cells; assay type: cell-based
Description: as §2, §3

[7] = system: multi-drug resistant ovarian cancer cell line NCI/ADR-RES; experiment: Cell growth assay on NCI/ADR-RES cells; assay type: cell-based
Description: as §2, §3

[8] = mice treated with RTI-79 with or without DOX
Protocol: Swiss mice were dosed with levels equal to and exceeding that of intended doses.

[9] = system: multi-drug resistant ovarian cancer cell line (NCI/ADR-RES) xenografts; experiment: NCI/ADR-RES xenograft efficacy studies in nude mice; assay type: in vivo; settings: DOXIL 7 mg/kg i.v. + RTI-79 25 mg/kg oral
Description: In a sixth efficacy study, we generated xenografts of multi-drug resistant ovarian cancer cell line (NCI/ADR-RES) by implantation of NCI/ADR-RES cell xenografts in the left and right flanks of nude mice, resulting in two tumors per mice. […] Tumor size was monitored.
In a seventh efficacy study, we generated xenografts of multi-drug resistant ovarian cancer cell line (NCI/ADR-RES) by implantation of NCI/ADR-RES cells xenografts in the left and right flanks of nude mice, resulting in two tumors per mouse. […] Tumor size was monitored.

total intracellular ROS = experiment: Intracellular ROS by CellROX staining and flow cytometry; assay type: cell-based; settings: for Induction of ROS: OVCAR8, ADR-RES and G3 cells, 2 hrs, 10 uM, FIG. 38
Description: Cells were then stained with the fluorescent ROS indicator, CellROX, and subjected to flow cytometry to quantitate total intracellular ROS.
The electron transport chain (ETC) is known to be a primary generator of ROS in the cell. Most of the ROS is generated by Complexes I and III of the ETC. Inhibition of Complex I results in electrons piling up and leaking to react with oxygen to produce ROS.
(§4) MDR/P-gp activity is closely associated with calcium status in the cell, so calcium modulators were tested for effects on ROS. […] Relatively Dox-sensitive lymphoma (CRL2631, 10S, WSU) and ovarian carcinoma (OVCAR8) and more Dox-resistant lymphoma (G3R, 10R, WSUR) and ovarian carcinoma (ADR) were treated with 10 uM […] for 2 hrs. […] Cells were co-stained with the cell-permeable red fluorescent ROS indicator, CellROX, and cell-permeable green fluorescent calcium indicator. Fluo-4AM, and then subjected to flow cytometry to quantitate changes in ROS and calcium levels.
(§5) All samples were analyzed at the same time in flow cytometry.

calcium mobilization = experiment: Calcium mobilization by Fluo-4AM staining and flow cytometry; assay type: cell-based
Protocol: as §4, §5

MMP2 = MMP2 secretion ELISA in U2-OS cells; assay type: cell-based; settings: 5 uM RTI-79
VEGF = VEGF secretion ELISA in U2-OS cells; assay type: cell-based; settings: RTI-79
[10] = system: primary human fibroblasts; experiment: Comparative cytotoxicity on primary human fibroblasts; settings: FIG. 3A and 3B
[11] = Pharmacokinetics (plasma concentration, half-life, tissue absorption); settings: after administration
[12] = system: T lymphoblastoid leukemia MOLT-4; experiment: Cell growth assay on MOLT-4 cells; assay type: cell-based; settings: with Rifabutin vs drug alone
Description: as §3

Compound	Magnitude of potentiation in combination with doxorubicin [1]	Magnitude of potentiation in combination with doxorubicin [2]	Magnitude of potentiation in combination with doxorubicin [4]	Magnitude of potentiation in combination with doxorubicin [5]	Magnitude of potentiation in combination with doxorubicin [6]	Magnitude of potentiation in combination with doxorubicin [7]	Induction of ROS (total intracellular ROS)	Toxicity to normal cells [10]	further results
4-deoxy-3,4[2-spiro-[1-(isobutyloxycarbonyl)-piperidin-4-yl]]-(1H)-imidazo-(2,5-dihydro)rifamycin S [RTI-79]	++ (++ potentiation between 2.1 to 5 fold increase)	++ (++ potentiation between 2.1 to 5 fold increase)	+++ (+++ potentiation greater than 5 fold increase)	+ (+ potentiation between 1.2 to 2.0 fold increase)	+ (+ potentiation between 1.2 to 2.0 fold increase)	++ (++ potentiation between 2.1 to 5 fold increase)	induced ROS	not toxic	Magnitude of potentiation in combination with doxorubicin [3]: + (+ potentiation between 1.2 to 2.0 fold increase); Heart tissue histology (H&E) and complete blood count and manual differential [8]: no significant differences; Tumor volume lower than in mice receiving only DOXIL ([9]; seventh study, after 46 days): 55%; Tumor volume reduction during the course of the study ([9]; seventh study): 50%; Tumor volume lower than in mice receiving only DOXIL ([9]; sixth study, after 41 days): 66%; Time after exposure at which increases in ROS were seen (total intracellular ROS; G3 cells, 10 uM RTI-79): 1 min; Time of treatment before calcium mobilization occurred (calcium mobilization; G3 cells, 10 uM RTI-79): > 15 min; MMP2 secretion (MMP2): 10.5 ng/million cells; VEGF secretion (VEGF): 436 pg/million cells; Time to maximal plasma concentration [11]: ≤ 3 h
11-deoxy-11-amino-4-deoxy-3,4[2-spiro-[1-(isobutyloxycarbonyl)-piperidin-4-yl]]-(1H)-imidazo-(2,5-dihydro)rifamycin S [RTI-176]	+++ (+++ potentiation greater than 5 fold increase)		+++ (+++ potentiation greater than 5 fold increase)		+ (+ potentiation between 1.2 to 2.0 fold increase)			not toxic	Fold increase in potency over DOX alone ([1]; lymphoma cell line G3): 5.2 fold
Cc1c2oc3c(C)ccc(C(=O)N[C@@H]4C(=O)N[C@H](C(C)C)C(=O)N5CCC[C@H]5C(=O)N(C)CC(=O)N(C)[C@@H](C(C)C)C(=O)O[C@@H]4C)c3nc-2c(C(=O)N[C@@H]2C(=O)N[C@H](C(C)C)C(=O)N3CCC[C@H]3C(=O)N(C)CC(=O)N(C)[C@@H](C(C)C)C(=O)O[C@@H]2C)c(N)c1=O [Actinomycin D, actinomycin D, reference compound] (I: T[dV]P[Sar][NMeV] / II: T[dV]P[Sar][NMeV]; ester I:1-I:C, II:1-II:C; linker I:N-II:N via Actinocin(9to1))									Fold increase in potency ([2]; with Rifabutin vs drug alone): 3 fold; Fold increase in potency [12]: >5 fold
CO[C@H]1/C=C/O[C@@]2(C)Oc3c(C)c(O)c4c(c3C2O)C2=NC3(CCN(C(=O)OCC(C)C)CC3)NC2=C(NC(=O)/C(C)=C\C=C\[C@H](C)[C@H](O)[C@@H](C)[C@@H](O)[C@@H](C)[C@H](OC(C)=O)[C@@H]1C)C4=O (stereo partly drawn) [RTI-175, 11-deoxy-11-hydroxy-4-deoxy-3,4[2-spiro-[1-(isobutyloxycarbonyl)-piperidin-4-yl]]-(1H)-imidazo-(2,5-dihydro)rifamycin S]	++ (++ potentiation between 2.1 to 5 fold increase)	+ (+ potentiation between 1.2 to 2.0 fold increase)	+++ (+++ potentiation greater than 5 fold increase)	+ (+ potentiation between 1.2 to 2.0 fold increase)	++ (++ potentiation between 2.1 to 5 fold increase)	++ (++ potentiation between 2.1 to 5 fold increase)			IC50 [1]: > 64 µM; IC50 ([1]; read-out: IC50 (μM) with doxorubicin (1 μM)): 1.06 µM
COc1cc2c(cc1OC)CN(CCc1ccc(NC(=O)c3cccc4c(=O)c5cccc(OC)c5[nH]c34)cc1)CC2 [elacridar]							induced ROS		Induction of ROS relative to control drugs (total intracellular ROS; ADR and OVCAR8 cells, FIG. 41A): induced ROS; Induction of calcium (calcium mobilization; FIG. 41B): induced calcium
